Source: ChEMBL document CHEMBL5465560, “Selectivity Literature for EUbOPEN Chemogenomic Library” (2024)
Residue numbers refer to the chain shown, from its start.

How the values were obtained:
[1] = target: STE20-like serine/threonine-protein kinase (Homo sapiens, UniProt Q9H2G2); experiment: Selectivity interaction (KinomeScan (DiscoverX)) EUB0000092b SLK; details: at 10 µM
[2] = target: CDC7/DBF4 (Cell division cycle 7-related protein kinase/Activator of S phase kinase) (Homo sapiens) (UniProt Q9UBU7+O00311); experiment: Selectivity interaction (ProQinase) EUB0000171b CDC7; format: protein-complex assay
Chain of CDC7/DBF4 (Cell division cycle 7-related protein kinase/Activator of S phase kinase) (Homo sapiens) (O00311 whole entry, looked up, the tested form may be a part): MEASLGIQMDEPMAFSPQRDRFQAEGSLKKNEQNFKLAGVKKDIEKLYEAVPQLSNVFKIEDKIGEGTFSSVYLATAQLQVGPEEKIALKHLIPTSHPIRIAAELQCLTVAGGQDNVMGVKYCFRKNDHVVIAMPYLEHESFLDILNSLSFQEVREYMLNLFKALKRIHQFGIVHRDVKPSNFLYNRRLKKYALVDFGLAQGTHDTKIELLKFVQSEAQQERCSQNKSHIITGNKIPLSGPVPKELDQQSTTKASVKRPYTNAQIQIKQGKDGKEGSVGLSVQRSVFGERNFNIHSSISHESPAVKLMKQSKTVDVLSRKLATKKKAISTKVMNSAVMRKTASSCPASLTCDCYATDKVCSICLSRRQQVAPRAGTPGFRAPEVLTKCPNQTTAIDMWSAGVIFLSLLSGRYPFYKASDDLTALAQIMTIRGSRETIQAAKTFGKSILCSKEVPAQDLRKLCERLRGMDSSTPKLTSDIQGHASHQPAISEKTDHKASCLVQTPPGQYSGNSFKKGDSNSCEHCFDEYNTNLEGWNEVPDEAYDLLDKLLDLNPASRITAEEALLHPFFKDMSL
Chain of CDC7/DBF4 (Cell division cycle 7-related protein kinase/Activator of S phase kinase) (Homo sapiens) (Q9UBU7 whole entry, looked up, the tested form may be a part): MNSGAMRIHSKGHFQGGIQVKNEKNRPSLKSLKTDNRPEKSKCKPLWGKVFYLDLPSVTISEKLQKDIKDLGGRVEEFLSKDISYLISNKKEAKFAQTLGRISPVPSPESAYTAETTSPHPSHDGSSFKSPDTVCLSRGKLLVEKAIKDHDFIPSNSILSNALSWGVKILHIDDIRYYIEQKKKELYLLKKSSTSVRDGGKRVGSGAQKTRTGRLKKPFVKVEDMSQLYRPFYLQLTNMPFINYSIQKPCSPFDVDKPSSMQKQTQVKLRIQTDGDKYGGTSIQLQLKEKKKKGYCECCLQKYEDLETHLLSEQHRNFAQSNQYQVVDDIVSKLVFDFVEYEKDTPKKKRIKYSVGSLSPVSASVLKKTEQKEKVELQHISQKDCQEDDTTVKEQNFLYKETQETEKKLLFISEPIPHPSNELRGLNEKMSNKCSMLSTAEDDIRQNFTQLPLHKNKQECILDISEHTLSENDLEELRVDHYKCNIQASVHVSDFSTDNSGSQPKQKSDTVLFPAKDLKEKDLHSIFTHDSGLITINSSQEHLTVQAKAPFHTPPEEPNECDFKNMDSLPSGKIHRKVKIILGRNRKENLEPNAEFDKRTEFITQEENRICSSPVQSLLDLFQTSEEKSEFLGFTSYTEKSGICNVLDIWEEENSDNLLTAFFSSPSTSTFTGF

[3] = target: T1, Discoidin domain-containing receptor 2 (Homo sapiens) (UniProt Q16832); experiment: (§1) Selectivity interaction (LanthaScreen Eu Kinase Binding Assay) EUB0001632a DDR2; details: at 10 µM
T1 sequence (whole entry): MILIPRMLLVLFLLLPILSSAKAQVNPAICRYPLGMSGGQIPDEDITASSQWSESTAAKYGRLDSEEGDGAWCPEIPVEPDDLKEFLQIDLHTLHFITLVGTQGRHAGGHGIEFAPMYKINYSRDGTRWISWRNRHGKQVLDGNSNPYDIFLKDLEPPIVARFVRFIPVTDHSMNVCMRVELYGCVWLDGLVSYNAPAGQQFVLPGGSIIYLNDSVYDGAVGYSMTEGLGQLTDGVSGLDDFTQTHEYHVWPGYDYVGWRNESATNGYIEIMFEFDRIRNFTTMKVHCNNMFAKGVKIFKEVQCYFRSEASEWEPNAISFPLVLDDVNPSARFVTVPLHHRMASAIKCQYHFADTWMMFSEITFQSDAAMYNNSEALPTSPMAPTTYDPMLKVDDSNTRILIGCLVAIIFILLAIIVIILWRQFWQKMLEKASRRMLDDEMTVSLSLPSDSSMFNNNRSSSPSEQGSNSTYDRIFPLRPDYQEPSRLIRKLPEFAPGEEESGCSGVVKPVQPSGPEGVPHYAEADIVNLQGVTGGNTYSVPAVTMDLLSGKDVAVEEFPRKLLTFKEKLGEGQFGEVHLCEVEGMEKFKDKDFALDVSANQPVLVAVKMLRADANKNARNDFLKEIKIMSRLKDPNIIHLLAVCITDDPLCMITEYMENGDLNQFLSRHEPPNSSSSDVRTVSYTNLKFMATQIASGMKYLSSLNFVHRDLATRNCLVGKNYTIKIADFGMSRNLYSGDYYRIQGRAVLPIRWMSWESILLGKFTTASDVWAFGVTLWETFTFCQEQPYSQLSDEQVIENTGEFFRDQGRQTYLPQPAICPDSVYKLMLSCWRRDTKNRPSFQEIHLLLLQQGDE

[4] = tested on: T2, Discoidin domain-containing receptor 2 (Homo sapiens), Q16832 [T654M]; experiment: as §1; details: at 10 µM
T2 sequence (whole entry): T1 sequence (whole entry) with T654M

[5] = target: T3, Serine/threonine-protein kinase NLK (Homo sapiens) (UniProt Q9UBE8); experiment: Selectivity interaction (LanthaScreen Eu Kinase Binding Assay) EUB0001632a NLK; details: at 10 µM
T3 sequence (whole entry): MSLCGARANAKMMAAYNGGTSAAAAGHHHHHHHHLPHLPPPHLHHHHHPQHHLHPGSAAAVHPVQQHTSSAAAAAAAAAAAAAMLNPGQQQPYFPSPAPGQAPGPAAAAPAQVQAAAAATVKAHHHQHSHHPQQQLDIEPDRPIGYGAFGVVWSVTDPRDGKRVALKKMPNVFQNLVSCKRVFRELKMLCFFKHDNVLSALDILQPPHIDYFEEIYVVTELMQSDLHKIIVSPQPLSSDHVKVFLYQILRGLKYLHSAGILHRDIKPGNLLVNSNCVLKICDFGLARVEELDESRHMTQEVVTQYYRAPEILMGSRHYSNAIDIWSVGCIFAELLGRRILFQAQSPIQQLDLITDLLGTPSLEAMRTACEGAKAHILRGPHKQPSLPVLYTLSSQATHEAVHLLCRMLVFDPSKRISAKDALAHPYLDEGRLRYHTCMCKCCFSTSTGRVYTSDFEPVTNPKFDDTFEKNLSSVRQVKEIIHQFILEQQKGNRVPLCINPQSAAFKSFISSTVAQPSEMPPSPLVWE

[6] = target: Cyclin-dependent kinase 7 (Homo sapiens, UniProt P50613); experiment: Selectivity interaction (ActivX KiNativ screen (kinase selectivity in THP-1 cell lysates)) EUB0000639a CDK7; format: subcellular; details: lysate, at 0.2 µM
Chain of Cyclin-dependent kinase 7 (P50613 whole entry): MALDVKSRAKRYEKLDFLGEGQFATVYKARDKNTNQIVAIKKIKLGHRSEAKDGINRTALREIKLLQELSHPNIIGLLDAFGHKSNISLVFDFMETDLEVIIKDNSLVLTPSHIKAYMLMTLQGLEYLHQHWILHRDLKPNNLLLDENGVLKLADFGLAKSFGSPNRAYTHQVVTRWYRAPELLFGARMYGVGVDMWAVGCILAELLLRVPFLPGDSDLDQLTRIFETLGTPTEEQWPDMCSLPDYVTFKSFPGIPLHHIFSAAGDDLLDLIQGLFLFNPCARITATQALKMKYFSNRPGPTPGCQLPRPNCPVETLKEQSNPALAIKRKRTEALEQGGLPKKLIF

[7] = target: T3, Serine/threonine-protein kinase NLK (Homo sapiens); experiment: Selectivity interaction (KinomeScan (DiscoverX)) EUB0000607a NLK; details: at 10 µM
[8] = target: Serine/threonine-protein kinase 38-like (Homo sapiens) (UniProt Q9Y2H1); experiment: Selectivity interaction (KinomeScan (DiscoverX)) EUB0000595a STK38L; details: at 10 µM
Chain of Serine/threonine-protein kinase 38-like (Homo sapiens) (Q9Y2H1 2-464 limits assumed): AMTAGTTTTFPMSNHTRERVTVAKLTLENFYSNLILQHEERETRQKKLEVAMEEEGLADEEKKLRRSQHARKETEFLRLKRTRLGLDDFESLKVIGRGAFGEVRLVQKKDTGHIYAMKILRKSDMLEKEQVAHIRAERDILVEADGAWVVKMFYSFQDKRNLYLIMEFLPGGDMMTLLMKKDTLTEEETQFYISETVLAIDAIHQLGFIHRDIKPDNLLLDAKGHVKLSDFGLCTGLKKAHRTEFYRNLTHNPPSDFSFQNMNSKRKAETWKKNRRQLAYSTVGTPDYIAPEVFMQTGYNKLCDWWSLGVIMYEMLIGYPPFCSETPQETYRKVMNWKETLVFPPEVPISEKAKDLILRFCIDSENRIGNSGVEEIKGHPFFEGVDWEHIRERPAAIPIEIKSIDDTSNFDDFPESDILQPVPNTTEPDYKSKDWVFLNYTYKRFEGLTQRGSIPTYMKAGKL

[9] = target: BDNF/NT-3 growth factors receptor (Homo sapiens) (UniProt Q16620); experiment: Selectivity interaction (KinomeScan (DiscoverX)) EUB0000595a NTRK2; details: at 10 µM
Chain of BDNF/NT-3 growth factors receptor (Homo sapiens) (Q16620 32-822 limits assumed): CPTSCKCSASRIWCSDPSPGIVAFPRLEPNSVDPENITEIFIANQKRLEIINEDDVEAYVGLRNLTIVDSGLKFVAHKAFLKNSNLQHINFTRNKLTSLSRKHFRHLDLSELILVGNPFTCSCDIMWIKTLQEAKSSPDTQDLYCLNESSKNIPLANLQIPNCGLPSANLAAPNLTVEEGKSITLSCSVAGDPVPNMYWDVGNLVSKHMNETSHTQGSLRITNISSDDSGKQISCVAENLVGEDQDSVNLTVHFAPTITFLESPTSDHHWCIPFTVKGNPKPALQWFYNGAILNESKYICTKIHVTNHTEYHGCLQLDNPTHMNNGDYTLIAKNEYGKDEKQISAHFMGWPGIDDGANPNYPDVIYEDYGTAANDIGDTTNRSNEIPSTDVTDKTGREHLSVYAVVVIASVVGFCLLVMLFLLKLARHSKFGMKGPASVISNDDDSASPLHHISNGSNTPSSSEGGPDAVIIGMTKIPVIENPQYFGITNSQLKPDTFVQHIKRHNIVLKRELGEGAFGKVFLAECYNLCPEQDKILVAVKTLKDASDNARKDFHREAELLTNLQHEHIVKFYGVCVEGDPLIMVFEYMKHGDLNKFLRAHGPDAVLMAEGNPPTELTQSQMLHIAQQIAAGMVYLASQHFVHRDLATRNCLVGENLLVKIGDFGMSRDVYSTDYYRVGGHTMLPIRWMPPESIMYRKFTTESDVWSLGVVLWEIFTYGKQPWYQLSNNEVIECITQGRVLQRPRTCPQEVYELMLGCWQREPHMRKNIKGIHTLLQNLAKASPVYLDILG

[10] = target: Activin receptor type-1-like (Homo sapiens) (UniProt P37023); experiment: Selectivity interaction (Ambit KINOMEscan and KiNATiv profiling in Jurkat cells) EUB0000090b ACVRL1; format: cell-based; details: at 1 µM
[11] = target: Tyrosine-protein kinase BTK (Homo sapiens, UniProt Q06187); experiment: Selectivity interaction (ActivX KiNativ screen (ex vivo kinase selectivity in human PBMCs)) EUB0001619a BTK; format: cell-based; details: PBMC, at 1 µM
Chain of Tyrosine-protein kinase BTK (Q06187 whole entry): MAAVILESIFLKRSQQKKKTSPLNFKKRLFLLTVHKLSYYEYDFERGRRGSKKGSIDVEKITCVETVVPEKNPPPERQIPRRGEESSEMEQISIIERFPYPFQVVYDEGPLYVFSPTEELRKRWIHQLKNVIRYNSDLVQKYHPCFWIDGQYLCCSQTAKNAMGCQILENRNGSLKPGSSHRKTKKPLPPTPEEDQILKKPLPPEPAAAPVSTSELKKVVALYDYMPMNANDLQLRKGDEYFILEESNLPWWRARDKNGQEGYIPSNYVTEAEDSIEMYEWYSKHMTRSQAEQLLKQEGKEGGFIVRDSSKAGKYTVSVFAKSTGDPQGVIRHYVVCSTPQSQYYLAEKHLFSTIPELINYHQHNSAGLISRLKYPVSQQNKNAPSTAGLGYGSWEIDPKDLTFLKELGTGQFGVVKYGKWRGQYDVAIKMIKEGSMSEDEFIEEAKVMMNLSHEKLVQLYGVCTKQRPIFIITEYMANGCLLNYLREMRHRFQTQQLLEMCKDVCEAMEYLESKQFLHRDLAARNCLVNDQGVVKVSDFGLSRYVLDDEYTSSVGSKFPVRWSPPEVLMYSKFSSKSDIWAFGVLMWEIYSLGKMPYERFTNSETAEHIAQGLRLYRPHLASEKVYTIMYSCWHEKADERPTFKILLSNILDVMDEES

Chain of STE20-like serine/threonine-protein kinase (Q9H2G2 whole entry, looked up): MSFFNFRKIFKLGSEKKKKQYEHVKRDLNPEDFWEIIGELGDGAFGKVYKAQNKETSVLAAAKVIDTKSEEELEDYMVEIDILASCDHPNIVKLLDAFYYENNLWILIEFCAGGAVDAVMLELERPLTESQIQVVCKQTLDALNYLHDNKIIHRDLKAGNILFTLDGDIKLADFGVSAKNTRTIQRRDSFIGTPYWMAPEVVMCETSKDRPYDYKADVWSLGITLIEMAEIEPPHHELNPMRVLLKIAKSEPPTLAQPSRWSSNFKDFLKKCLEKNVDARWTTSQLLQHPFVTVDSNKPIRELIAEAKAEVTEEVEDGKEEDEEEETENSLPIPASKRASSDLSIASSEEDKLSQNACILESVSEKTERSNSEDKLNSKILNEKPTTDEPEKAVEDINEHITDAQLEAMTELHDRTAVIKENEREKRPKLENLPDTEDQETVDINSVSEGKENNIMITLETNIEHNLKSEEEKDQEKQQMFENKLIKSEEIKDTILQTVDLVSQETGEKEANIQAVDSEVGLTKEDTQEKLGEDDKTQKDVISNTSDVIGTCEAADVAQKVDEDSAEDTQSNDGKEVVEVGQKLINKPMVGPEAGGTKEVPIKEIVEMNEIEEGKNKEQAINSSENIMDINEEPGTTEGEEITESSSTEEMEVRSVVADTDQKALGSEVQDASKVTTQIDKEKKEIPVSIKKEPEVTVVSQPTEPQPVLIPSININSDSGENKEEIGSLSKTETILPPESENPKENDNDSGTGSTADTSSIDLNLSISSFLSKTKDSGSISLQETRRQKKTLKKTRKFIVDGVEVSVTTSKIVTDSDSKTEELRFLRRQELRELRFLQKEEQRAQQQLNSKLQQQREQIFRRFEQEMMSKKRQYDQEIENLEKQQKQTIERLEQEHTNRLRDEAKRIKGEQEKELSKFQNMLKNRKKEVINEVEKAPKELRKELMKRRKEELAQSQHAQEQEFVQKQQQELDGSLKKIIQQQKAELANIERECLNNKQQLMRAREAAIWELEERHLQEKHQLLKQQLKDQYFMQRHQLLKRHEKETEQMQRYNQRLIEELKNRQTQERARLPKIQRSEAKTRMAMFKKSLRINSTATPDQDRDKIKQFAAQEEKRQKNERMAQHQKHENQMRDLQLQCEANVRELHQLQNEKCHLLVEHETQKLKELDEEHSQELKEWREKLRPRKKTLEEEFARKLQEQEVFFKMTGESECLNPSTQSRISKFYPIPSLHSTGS

## CCC(=O)N1CCN(c2ccc(-n3c(=O)ccc4cnc5ccc(-c6cnc7ccccc7c6)cc5c43)cc2C(F)(F)F)CC1
[1]
  % of control: 94%

## C=CC(=O)Nc1cccc(C(=O)Nc2ccc(Nc3cc(-c4[nH]c(SC)nc4C)ccn3)cc2)c1
[2]; at 1 µM
  % of control: 94%
[2]; at 5 µM
  % of control: 89%

## Cn1cc(-n2cnc3c(NCc4nc5cc(Cl)c(Cl)cc5[nH]4)nc(N4CCOCC4)nc32)cn1
[3]
  % of inhibition: -2.81%
[4]
  % of inhibition: -29.9%
[5]
  % of inhibition: 13.4%

## CC[C@@H]1[C@H](F)C(=O)N[C@@H]1COc1nccc2cc(C(N)=O)c(OC)cc12 [ZIMLOVISERTIB]
[6]
  % of inhibition: -4.5%

## CNC(=O)Nc1ccc(-c2nc(N3CC4CCC(C3)O4)c3cnn(C4CCC5(CC4)OCCO5)c3n2)cc1
[7]
  % of control: 85%

## COCC(=O)NC/C=C/c1ccc2ncnc(Nc3ccc(Oc4ccc(C)nc4)c(C)c3)c2c1 [CP-724714]
[8]
  % of control: 100%
[9]
  % of control: 100%

## CN(C)C/C=C/C(=O)Nc1ccc(C(=O)N2CCCC(Nc3ncc(Cl)c(-c4c[nH]c5ccccc45)n3)C2)cc1 (configuration not stated)
[10]
  % of control: 79%

## N#Cc1cccc(-c2c[nH]c3ncnc(N4CCOCC4)c23)c1
[11]
  % of inhibition: 13%
